Data reported in ChEMBL document CHEMBL1201862, “PubChem BioAssay data set” (2004).
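Each compound was tested at five concentrations against cells in 96-well plates for 48 hours. The concentration for 50% growth inhibition is given as GI50.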 The source made the active and inactive calls. Cut-off read from the data, not from the text of the source: active = GI50 up to about 1.1 µM and inactive = higher.

What was measured:
Test in all cases: growth of human tumour cells (NCI), 48 h
[1] = test system: CAKI-1
[2] = test system: SF-295
[3] = test system: COLO 205
[4] = test system: IGROV-1
[5] = test system: 786-0
[6] = test system: NCI-H522
[7] = test system: HOP-62
[8] = test system: RPMI-8226
[9] = test system: ACHN
[10] = test system: SK-MEL-2
[11] = test system: HCT-15
[12] = test system: NCI/ADR-RES
[13] = test system: SK-OV-3
[14] = test system: Hs-578T
[15] = test system: U-251
[16] = test system: PC-3
[17] = test system: SW-620
[18] = test system: MOLT-4
[19] = test system: T47D
[20] = test system: A498
[21] = test system: OVCAR-8
[22] = test system: SK-MEL-5
[23] = test system: SF-539
[24] = test system: SF-268
[25] = test system: TK-10
[26] = test system: Malme-3M
[27] = test system: HT-29
[28] = test system: NCI-H460
[29] = test system: UACC-257
[30] = test system: OVCAR-3
[31] = test system: SNB-75
[32] = test system: MDA-MB-435
[33] = test system: A549
[34] = test system: BT-549
[35] = test system: UO-31
[36] = test system: HCT-116
[37] = test system: K562
[38] = test system: OVCAR-5
[39] = test system: M14
[40] = test system: NCI-H23
[41] = test system: MDA-MB-231
[42] = test system: SN12C
[43] = test system: MDA-N
[44] = test system: HOP-92
[45] = test system: RXF 393
[46] = test system: HL-60
[47] = test system: DU-145
[48] = test system: EKVX
[49] = test system: UACC-62
[50] = test system: LOX IMVI
[51] = test system: KM12
[52] = test system: CCRF-CEM
[53] = test system: SK-MEL-28
[54] = test system: NCI-H226
[55] = test system: SNB-19
[56] = test system: HCC 2998
[57] = test system: MCF7
[58] = test system: OVCAR-4

With `c1ccc2c(c1)N[C@@H]1c3[nH]c4ccccc4c3CC[C@H]21` the GI50 [1] was 18.2 µM (inactive), the GI50 [2] was 13.4 µM (inactive) and the GI50 [3] was 14.7 µM (inactive). For the same molecule, the GI50 [4] was 3.95 µM (inactive), the GI50 [5] was 15.1 µM (inactive) and the GI50 [6] was 11.6 µM (inactive). For the same molecule, the GI50 [7] was 13.3 µM (inactive), the GI50 [8] was 14.7 µM (inactive) and the GI50 [9] was 21.4 µM (inactive). The GI50 [10] was 13.9 µM (inactive), the GI50 [11] was 23 µM and the GI50 [12] was 13.6 µM (inactive). The GI50 [13] was 14.6 µM (inactive), the GI50 [14] was 10.2 µM (inactive) and the GI50 [15] was 14.2 µM (inactive). For the same molecule, the GI50 [16] was 11.9 µM (inactive), the GI50 [17] was 17.7 µM (inactive) and the GI50 [18] was 13.9 µM (inactive). The GI50 [19] was 16.7 µM (inactive), the GI50 [20] was 16.7 µM (inactive) and the GI50 [21] was 12.9 µM (inactive). For the same molecule, the GI50 [22] was 14.3 µM (inactive), the GI50 [23] was 16.6 µM (inactive) and the GI50 [24] was 22.4 µM (inactive). For the same molecule, the GI50 [25] was 37 µM (inactive), the GI50 [26] was 5.13 µM (inactive) and the GI50 [27] was 15.6 µM (inactive). The GI50 [28] was 16.8 µM (inactive), the GI50 [29] was 26.9 µM (inactive) and the GI50 [30] was 13.9 µM (inactive). The GI50 [31] was 1.3 µM (inactive), the GI50 [32] was 17.3 µM (inactive) and the GI50 [33] was 18.3 µM (inactive). For the same molecule, the GI50 [34] was 18.8 µM (inactive), the GI50 [35] was 17.7 µM (inactive) and the GI50 [36] was 14.7 µM (inactive). The GI50 [37] was 14 µM (inactive), the GI50 [38] was 13.2 µM (inactive) and the GI50 [39] was 13.5 µM (inactive). The GI50 [40] was 15.8 µM (inactive), the GI50 [41] was 15.5 µM (inactive) and the GI50 [42] was 15.2 µM (inactive). For the same molecule, the GI50 [43] was 19.6 µM (inactive), the GI50 [44] was 14.4 µM (inactive) and the GI50 [45] was 17.9 µM (inactive). The GI50 [46] was 16.1 µM (inactive), the GI50 [47] was 16.9 µM (inactive) and the GI50 [48] was 13.5 µM (inactive). The GI50 [49] was 17.6 µM (inactive), the GI50 [50] was 16 µM (inactive) and the GI50 [51] was 14 µM (inactive). For the same molecule, the GI50 [52] was 15 µM (inactive), the GI50 [53] was 18.5 µM (inactive) and the GI50 [54] was 12.5 µM (inactive). The GI50 [55] was 17.6 µM (inactive).
For `Cc1cc(Nc2ccc(S(=O)(=O)O)c3cc(S(=O)(=O)O)cc(S(=O)(=O)O)c23)c2ccccc2n1`, the GI50 [1] was > 100 µM (inactive), the GI50 [2] was > 100 µM (inactive) and the GI50 [3] was > 100 µM (inactive). The GI50 [4] was > 100 µM (inactive), the GI50 [5] was > 100 µM (inactive) and the GI50 [6] was > 100 µM (inactive). The GI50 [7] was > 100 µM (inactive), the GI50 [56] was > 100 µM (inactive) and the GI50 [8] was > 100 µM (inactive). For the same molecule, the GI50 [9] was > 100 µM (inactive), the GI50 [10] was > 100 µM (inactive) and the GI50 [11] was over 100 µM. The GI50 [12] was > 100 µM (inactive), the GI50 [13] was > 100 µM (inactive) and the GI50 [14] was > 100 µM (inactive). The GI50 [15] was > 100 µM (inactive), the GI50 [16] was > 100 µM (inactive) and the GI50 [17] was > 100 µM (inactive). The GI50 [18] was > 100 µM (inactive), the GI50 [19] was > 100 µM (inactive) and the GI50 [20] was > 100 µM (inactive). The GI50 [21] was > 100 µM (inactive), the GI50 [22] was > 100 µM (inactive) and the GI50 [23] was > 100 µM (inactive). For the same molecule, the GI50 [24] was > 100 µM (inactive), the GI50 [25] was > 100 µM (inactive) and the GI50 [26] was > 100 µM (inactive). For the same molecule, the GI50 [27] was > 100 µM (inactive), the GI50 [28] was > 100 µM (inactive) and the GI50 [29] was > 100 µM (inactive). The GI50 [30] was > 100 µM (inactive), the GI50 [31] was > 100 µM (inactive) and the GI50 [57] was > 100 µM (inactive). For the same molecule, the GI50 [32] was > 100 µM (inactive), the GI50 [33] was > 100 µM (inactive) and the GI50 [34] was > 100 µM (inactive). The GI50 [35] was > 100 µM (inactive), the GI50 [36] was > 100 µM (inactive) and the GI50 [38] was > 100 µM (inactive). The GI50 [39] was > 100 µM (inactive), the GI50 [40] was > 100 µM (inactive) and the GI50 [41] was > 100 µM (inactive). For the same molecule, the GI50 [42] was > 100 µM (inactive), the GI50 [43] was > 100 µM (inactive) and the GI50 [45] was > 100 µM (inactive). The GI50 [46] was > 100 µM (inactive), the GI50 [47] was > 100 µM (inactive) and the GI50 [48] was > 100 µM (inactive). For the same molecule, the GI50 [49] was > 100 µM (inactive), the GI50 [50] was > 100 µM (inactive) and the GI50 [51] was > 100 µM (inactive). The GI50 [53] was > 100 µM (inactive), the GI50 [54] was > 100 µM (inactive) and the GI50 [58] was > 100 µM (inactive). For the same molecule, the GI50 [55] was > 100 µM (inactive).
